# “Also recorded” adds a separate entry of the source.
# Columns and labels:
# [1] = oral administration to rats; cited from earlier work
# [2] = tested on: LPS-treated Swiss albino mice; settings: 6-day treatment 2.5 mg/kg/day, LPS 0.8 mg/kg i.p.; cited from earlier work
# [3] = tested on: mouse brain microvascular endothelial cell models; settings: lipopolysaccharide-induced inflammation and oxidative stress; cited from earlier work
# [4] = Neurite outgrowth and cell viability, two-color fluorescence assay kit; format: cell-based; settings: human, 3-day or 6-day treatment, green fluorescence, read-out: cell viability relative to the control
# Method: (§1) The SH-SY5Y cells were grown in DMEM/F-12 medium supplemented with 10% FBS at 37 °C under a humidified atmosphere and 5% CO2 [41]. […] The MTT was used to evaluate cell viability, and the absorbance at 570 nm was determined. The DMSO used instead of the sample solution was blank (recognized as 100%), and each treatment was expressed as relative cell viability (%). To study the stimulation of neurite outgrowth, the SH-SY5Y cells (5000 cells/well) were seeded on a 96-well plate pre-coated with poly-L-lysine and then cultured in the DMEM/F-12 medium containing 10% FBS overnight at 37 °C under a humidified atmosphere and 5% CO2. After being removed from the culture medium, each PIC, GNT, RHA, and isoRHA (at a final concentration of 10 μM in the 0.1%DMSO) or 0.1% DMSO (the control) was added to the DMEM/F-12 medium containing 10% FBS and refreshed every three days. On day 3 and day 6, each of the culture plates was photographed using an inverted microscope (ECLIPSE TS100, Nikon Instruments Inc., Tokyo, Japan). The culture medium was removed and washed with PBS, and the cultured cells in each well were fixed with 4% paraformaldehyde. To measure cell viability and quantify the neurite outgrowths of the treated SH-SY5Y in a 96-well plate, the neurite outgrowth staining kit (a two-color fluorescence assay kit) was used, following a previous report or the protocol in the manufacturer’s manual (publication number: MAN0007224), which included a cell membrane-stained fluorescent dye (orange-red fluorescence), a cell viability indicator (green fluorescence), and a reagent for background masking. […] The value for the control was recognized as 100%, and each treatment was expressed relative to the control.
# SH-SY5Y cells [5] = assay: as above; format: cell-based; settings: 10 μM, 3-day or 6-day treatment, orange-red fluorescence; vs control
# Method: as §1
# SH-SY5Y cells [6] = assay: Cytotoxicity on SH-SY5Y cells (MTT); format: cell-based; settings: 1, 2, 5 and 10 μM, MTT (Figure S1)
# Method: The human SH-SY5Y neuroblastoma cell lines (CRL-2266, Lot No. 58979771) were purchased from American Type Culture Collection (Manassas, VA, USA) and used as models to investigate PIC and its analogs for neuroprotective activities against Aβ-induced cell deaths and the stimulation of neurite outgrowths. The SH-SY5Y cells were grown in DMEM/F-12 medium supplemented with 10% FBS at 37 °C under a humidified atmosphere and 5% CO2 [41]. […]. The SH-SY5Y cells (10,000 cells/well) were seeded and cultured in a DMEM/F-12 medium containing 10% FBS for 24 h at 37 °C under a humidified atmosphere and 5% CO2. […] The medium was then removed, and 40 μg/mL Aβ peptide (25–35) (dissolved in PBS) or an equal aliquot of PBS was added to the medium for another 24 h culture. The MTT was used to evaluate cell viability, and the absorbance at 570 nm was determined. The DMSO used instead of the sample solution was blank (recognized as 100%), and each treatment was expressed as relative cell viability (%). […] To measure cell viability and quantify the neurite outgrowths of the treated SH-SY5Y in a 96-well plate, the neurite outgrowth staining kit (a two-color fluorescence assay kit) was used, following a previous report or the protocol in the manufacturer’s manual (publication number: MAN0007224), which included a cell membrane-stained fluorescent dye (orange-red fluorescence), a cell viability indicator (green fluorescence), and a reagent for background masking. The fluorescence ratios of Ex555nm/Em565nm and Ex495nm/Em515nm were determined for the neurite outgrowths and the cell viabilities, respectively. […]
# The following supporting information can be downloaded at: https://www.mdpi.com/article/10.3390/antiox12071362/s1. […] The MTT was used to evaluate cell viability, and the absorbance at 570 nm was determined. The DMSO used instead of the sample solution was blank (recognized as 100%), and each treatment was expressed as relative cell viability (%). […]
# SH-SY5Y cells [7] = assay: Neuroprotection against Aβ peptide (25–35)-induced cell deaths (MTT); format: cell-based, human; settings: pre-treatment 1, 2 and 10 μM for 24 h, then 40 μg/mL Aβ (25–35) 24 h; vs control p < 0.05
# Method: The human SH-SY5Y neuroblastoma cell lines (CRL-2266, Lot No. 58979771) were purchased from American Type Culture Collection (Manassas, VA, USA) and used as models to investigate PIC and its analogs for neuroprotective activities against Aβ-induced cell deaths and the stimulation of neurite outgrowths. The SH-SY5Y cells were grown in DMEM/F-12 medium supplemented with 10% FBS at 37 °C under a humidified atmosphere and 5% CO2 [41]. […]. The SH-SY5Y cells (10,000 cells/well) were seeded and cultured in a DMEM/F-12 medium containing 10% FBS for 24 h at 37 °C under a humidified atmosphere and 5% CO2. […] The medium was then removed, and 40 μg/mL Aβ peptide (25–35) (dissolved in PBS) or an equal aliquot of PBS was added to the medium for another 24 h culture. The MTT was used to evaluate cell viability, and the absorbance at 570 nm was determined. The DMSO used instead of the sample solution was blank (recognized as 100%), and each treatment was expressed as relative cell viability (%). To study the stimulation of neurite outgrowth, the SH-SY5Y cells (5000 cells/well) were seeded on a 96-well plate pre-coated with poly-L-lysine and then cultured in the DMEM/F-12 medium containing 10% FBS overnight at 37 °C under a humidified atmosphere and 5% CO2. After being removed from the culture medium, each PIC, GNT, RHA, and isoRHA (at a final concentration of 10 μM in the 0.1%DMSO) or 0.1% DMSO (the control) was added to the DMEM/F-12 medium containing 10% FBS and refreshed every three days. On day 3 and day 6, each of the culture plates was photographed using an inverted microscope (ECLIPSE TS100, Nikon Instruments Inc., Tokyo, Japan). The culture medium was removed and washed with PBS, and the cultured cells in each well were fixed with 4% paraformaldehyde. To measure cell viability and quantify the neurite outgrowths of the treated SH-SY5Y in a 96-well plate, the neurite outgrowth staining kit (a two-color fluorescence assay kit) was used, following a previous report or the protocol in the manufacturer’s manual (publication number: MAN0007224), which included a cell membrane-stained fluorescent dye (orange-red fluorescence), a cell viability indicator (green fluorescence), and a reagent for background masking. The fluorescence ratios of Ex555nm/Em565nm and Ex495nm/Em515nm were determined for the neurite outgrowths and the cell viabilities, respectively. The value for the control was recognized as 100%, and each treatment was expressed relative to the control.
# [8] = after oral RSV 75 mg/kg, athymic nude mice; cited from earlier work
smiles,measurement,setting,value
"Oc1cc(O)cc(C=Cc2ccc(O)c(O)c2)c1 [PIC, 3,5,3′,4′-tetrahydroxystilbene]",bioavailability,[1],50.7%
same,half-life,[1],4.23 h
same,Aβ levels in brain extracts,[2],reduce Aβ levels in brain extracts
same,learning and memory functions,[2],ameliorate
same,BBB integrity,[3],protect BBB integrity
same,viability at 10 µM,[4],80%
same,stimulation of neurite outgrowths,SH-SY5Y cells [5],not PIC nor GNT; also recorded: not PIC and GNT
same,cytotoxicity on SH-SY5Y cells,SH-SY5Y cells [6],insignificant cytotoxicity
same,neuroprotection: cell viability against Aβ peptide (25–35)-induced cell deaths,SH-SY5Y cells [7],elevated cell viabilities
same,PIC detected in the liver,[8],11.50 nmol/g
same,PIC detected in the plasma,[8],5.25 µmol/L
same,PIC detected in the skin,[8],2.4 nmol/g

# Source: publication PMC10376691, “Inhibition of Acetylcholinesterase and Amyloid-β Aggregation by Piceatannol and Analogs: Assessing In Vitro and In Vivo Impact on a Murine Model of Scopolamine-Induced Memory Impairment” (Antioxidants, 2023)
